Results taken from patent US6376649B1, “Methods for the synthesis of α- hydroxy-β-amino acid and amide derivatives” (Corvas International, Inc., priority 1998, dated 2002).

Target: thrombin (Homo sapiens, UniProt P00734)
Assay: standard in vitro assays of thrombin inhibitory activity and selectivity
Type: biochemical
Conditions: standard in vitro assays designed to measure inhibitory activity and selectivity toward thrombin versus other proteases

thrombin inhibitory activity: thrombin inhibitory activity
Substance: BnSO2-7Lac—G—R(.TFA)(CO))—Gly—OEt [16-5]
